One series relates to 56 KD Aβ species. Put plainly: Western blot of soluble brain fractions (6E10 antibody). It counts as in vivo. The conditions noted are these: 5XFAD mice, 1 mg intraperitoneally every other day for 4 months.
The target in a further series is T1, Aβ1-42 (Homo sapiens, UniProt P05067).
T1 construct: Amyloid β-peptide(1-42) and amyloid β-peptide(1-40) trifluoroacetate salts; purchased Bachem (Bubendorf, Switzerland); host or cells: synthetic peptide
Put plainly: Fluorescence anisotropy (polarization) titration with Aβ1-42. The class given is binding. The procedure:
For the florescence anisotropy studies SY-81 or SY-83 was dissolved in DMSO to a concentration of 1 μM and sonicated for 5 min. The solution was immediately mixed with aliquots of an Aβ1-42 stock solution (20 μM) to varying final polypeptide concentrations. SY-81 and SY-83 polarization measurements were carried out using an ISS K2 fluorimeter. The solutions were excited at 280 nm and emission was monitored at 350 nm. For each single point, at least five measurements were collected and their average values were used for the calculation. All experiments were performed in PBS (pH 7.4).
Increasing amounts of Aβ were titrated into a solution of SY-83 or SY-81 and the anisotropy 15 was determined (FIG. 4A-B).

A further series has as its target T2, Aβ1-40 fibrils (Homo sapiens, UniProt P05067).
T2 construct: Amyloid β-peptide(1-42) and amyloid β-peptide(1-40) trifluoroacetate salts; purchased Bachem (Bubendorf, Switzerland); host or cells: synthetic peptide
Put plainly: Thioflavin T (ThT) fluorescence assay of fibril formation. It counts as biochemical. The procedure:
For executing the ThT florescence assay, Aβ1-40 was dissolved to a concentration of 10 μM in 10% DMSO in PBS (pH 7.4). Aβ was immediately mixed with or without different concentrations of SY-81 or SY-83 at a 1:1 ration to a final concentration of 5 μM. The samples were incubated at 37° C. and the fibrillogenesis rate was followed by thioflavin T (ThT) fluorescence assay (excitation at 450 nm, 2.5 nm slit, and emission at 480 nm, 5 nm slit), over a course of 11 days to two weeks. ThT was added to a 10-fold diluted sample and measured using a Jobin Yvon Horiba Fluoromax 3 fluorimeter.
Though there is a growing recognition that the early Aβ oligomer intermediates and not the fibrils are the most toxic amyloid forms in AD, this debate has not been completely resolved. […] This method provides quantitative information on amyloid fibrils growth. β-amyloid was allowed to form amyloid fibrils either in the presence of different concentrations of SY-83 (FIGS. 5A, C) or SY-81 (FIGS. 5B, D) or with no inhibitor (WT). The fibrillization process was followed for several days until a plateau state was reached. Fluorescence values were measured throughout.
An end point experiment was further conducted with various concentrations of SY-81 and SY-83 in order to determine IC50. An IC50 of 50 nM and 100 nM was measured for SY-81 and SY-83, respectively. […]

Series [1] in a line: Locomotion (climbing) assay in Alzheimer's Drosophila model. It counts as in vivo, Drosophila melanogaster. Conditions: medium with 0.75 mg/ml, control males lacking Aβ1-42 expression. The protocol: In vivo studies (fly maintenance) were performed with Drosophila melanogaster flies grown on a standard corneal-molasses medium and kept at 25° C. As Drosophila females can store sperm cells in their bodies, crosses were conducted using virgin females collected no longer than 8 hours after eclosion at 25° C. or 18 hours after eclosion at 18° C. Adult offspring (F1) from the crosses were collected up to 9 days after the beginning of their eclosion at 25° C. in order to avoid collection of offspring from the next generation (F2). […]
The locomotion (climbing) assay was carried out in fresh rearing vials, each containing 10 flies of a given class (four classes mentioned below). […] The percent of flies which climbed to the top of the test tube was then calculated over time. […] Data were analyzed using standard ANOVA statistical exams.
In order to assess the effect of SY-81 and SY-83 in the living organism, a Drosophila model of Alzheimer's was used, based on the work of Crowther et al. (ibid) who generated transgenic flies that express the human Aβ1-42 protein conditionally, using the UAS-Gal4 expression system. […] These defects included progressive decline of locomotion in aged flies (measured as ability to climb up), and marked shortening of life span. […]
Suppression of climbing defects was assessed as detailed below in flies genotype: Gal4-elav^c155 UAS-Aβ1-42. […]

The subject of another series is rat PC12 cell line. Put plainly: MTT cell viability assay, cytotoxicity of soluble Aβ oligomers. It counts as cell-based. Conditions: PC12 cells, 24 hours. The procedure: The cytotoxicity assay was performed with Rat PC12 cells (1.5×10^5 cells/mL) cultured in 96-well microplates (100 μL/well) and incubated overnight at 37° C. Samples with toxic oligomers from above were either dialyzed over night against PBS buffer or diluted with 9 volumes of an aqueous solution containing 33% methanol and 4% acetic acid, and incubated for 2 hours at 4° C. The samples were then centrifuged at 16,000 g for 40 minutes, the supernatant discarded and the pellet was resuspended in 5 mM NaH2PO4, 35 mM NaCl, pH 7.4. To each well we added 100 μL of 0.5 μM Aβ which formed toxic oligomers and prepared mixtures of inhibitors at various concentrations. Each experiment was repeated four times. Following incubation for 24 hours at 37° C., cell viability was evaluated using the MTT assay. Briefly, 20 μL of 5 mg/mL MTT dissolved in PBS was added to each well. […] Finally, color intensity was measured using an ELISA reader at 570 nm.
To further substantiate the inhibition induced by SY-81, it was tested whether SY-81 affects the toxicity of Aβ oligomers towards the rat PC12 cell line. Toxic oligomers were pre-incubated with different concentrations of SY-81 and toxicity was assessed using the MTT cell viability assay.

Structures are written as SMILES. Where two headings read alike, the source gives them in different places.

T1 sequence (P05067 672-713 limits assumed): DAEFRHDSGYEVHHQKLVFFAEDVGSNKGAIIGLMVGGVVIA
T2 sequence (P05067 672-711 limits assumed): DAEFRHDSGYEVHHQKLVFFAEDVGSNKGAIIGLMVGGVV

Regarding `O=C1C(Cl)=C(NC(Cc2c[nH]c3ccccc23)C(=O)O)C(=O)c2ccccc21` (stereo not shown) [SY-83], in the series with 56 KD Aβ species, the “reduction in 56 KD Aβ species in soluble brain fractions” value was found to be 91%. The compound further registered a Kd on Aβ1-42 of approximately 900 nM. On Aβ1-40 fibrils, this compound had an IC50 of 100 nM.

Regarding `O=C1C=C(NC(Cc2c[nH]c3ccccc23)C(=O)O)C(=O)c2ccccc21` (stereo not shown) [SY-81], in series [1], the “climbing behavior of control males” value was “No effect”. Moreover, the Kd at Aβ1-42 (fluorescence anisotropy, PBS pH 7.4, read-out: affinity towards Aβ) was approximately 90 nM. The 50% inhibitory concentration (IC50) at Aβ1-40 fibrils (end point experiment, various concentrations, read-out: IC50 of fibril formation) was 50 nM. For the same compound, in the series on rat PC12 cell line, the “toxic effect of the compound on its own (cell viability)” value is “no toxic effect”.

The values above are taken from US9272993B2, “Naphthoquinone derivatives useful for prevention of amyloid deposits and treatment of diseases involving amyloidogenesis” (TECHNOLOGY INNOVATION MOMENTUM FUND (ISRAEL) LIMITED …, priority 2008, dated 2016).
